Source: patent US8592611B2, “Trioxane dimer sulfur compounds” (The Johns Hopkins University, priority 2008, dated 2013)

Assays:
[1] = test system: P. vivax and P. falciparum; conditions: 2099 cases of malaria (P. vivax and P. falciparum about 3:1), different dosage forms; cited from earlier work
[2] = test system: chloroquine-sensitive P. falciparum (NF54); test: in vitro antimalarial activity, [3H]hypoxanthine incorporation; assay type: cell-based; conditions: Plasmodium falciparum
Text: To determine the antimalarial effect of the disclosed trioxane sulfur dimer compounds of Formula I, screening assays may be performed against chloroquine-sensitive P. falciparum (NF54). Using the methods described below, the IC50 values of these compounds may be determined.
Antimalarial activity may be determined by measuring the incorporation of [^3H]hypoxanthine by the methods of DesJardins and Milhous with the following modifications, see Desjardins, R. E.; Canfield, C. J.; Haynes, J. D.; Chulay, J. D., Antimicrob. Agents Chemother., 16:710 (1979); Milhous, W. K.; Weatherly, N. F.; Bowdre, J. H.; Desjardins, R., Antimicrob. Agents Chemother., 27:525 (1985). […]
Stock solutions (approximately 2.5 mg/mL of HPLC-purified or recrystallized test compound) are prepared in dimethyl sulfoxide (DMSO; Sigma-Aldrich #27,043-1). […] Cells may be harvested (Brandel MB-48R) onto GF-C glass filters (Brandel), and the filters washed five times with 3 mL water per sample spot, dried under a heat lamp, and counted (Beckman Model LS-6500) in scintillation cocktail (ICN Cytoscint).
Decays per minute (dpm) values may be downloaded and analyzed (Power Macintosh 7200/90; Microsoft Excel 5.0), to yield the mean and standard deviation at each drug concentration. […]

[3] = test system: P388 leukemia; conditions: NCI Report on NSC 369397, tested on 25 Oct. 1983; cited from earlier work
[4] = test system: human HeLa cervical cancer cells; conditions: human HeLa cervical cancer cells in vitro; cited from earlier work

| SMILES | clinical outcome [1] | IC50 [2] | activity against P388 leukemia [3] | IC50 [4] |
| --- | --- | --- | --- | --- |
| C[C@@H]1CC[C@H]2[C@@H](C)C(=O)O[C@@H]3O[C@]4(C)CC[C@@H]1[C@]32OO4 [artemisinin] | clinical cure of all patients | 7.7 nM | inactive |  |
| C[C@@H]1CC[C@H]2[C@@H](C)C(O)O[C@@H]3O[C@]4(C)CC[C@@H]1[C@]32OO4 (stereo partly shown) [dihydroartemisinin] |  |  |  | 5 to 10 µM |
